# Laboratory results reported in patent publication US10485772B2, “Compositions for modulating cancer stem cells and uses therefor” (University of Canberra, priority 2014, dated 2019).
# System: MDA-MB 231 cells
# Assay: FACS analysis of CD44high/CD24low CSC-like subpopulation in Basal/metastatic model
# Type: cell-based, human
# Details: bisindolylmaleimide-I 4 μM
# Method: Cells from each well/flask were harvested by means of trypsin treatment followed by two washes with PBS. Washed cells then re-suspended in an antibody cocktail consisting anti-CD44-APC, anti-CD24-PE antibodies (details in Table 5) and Hoechst 33258 dye (final dilution of 1:1000) (Invitrogen, Carlsbad, Calif.) in 1% FCS-PBS solution. Cells re-suspended in antibody cocktail were incubated for 20 minutes at 4° C. Cells were next washed twice with PBS and re-suspended in 1% FCS-PBS solution (volume based on cell number) and kept on ice until analyzed by FACS. Forward scatter (FSC) and side scatter parameters were selected with FITC fluorochrome excited by 488 nm argonion laser, PE fluorochrome excited by 488 nm and Hoechst fluorochrome excited by 350 nm helium-cadmium UV laser.
# Flow Cytometry data was produced using either BD FACS LSR Flow Cytometer (Becton Dickinson Biosciences) or BD FACS Aria™ II Flow Cytometer (Becton Dickinson Biosciences) and analyzed using the data acquisition software CellQuest Pro (Becton Dickinson Biosciences) and FlowJo (Tree Star Inc., Ashland, Oreg.) software at the MCRF facility, JCSMR, ANU, Canberra, Australia. Single colour controls were used to set compensation parameters. Isotype controls were used for all corresponding primary antibodies in each experiment.
# The adherent human mammary adenocarcinoma MCF-7 and MDA-MB-231 cells were cultured in low glucose DMEM (Gibco) and both supplemented with 10% FCS, 2 mM L-glutamine and 0.1% PSN antibiotics. Cells were stimulated with 0.65 ng/ml of phorbol 12-myristate 13-acetate (PMA) (Sigma-Aldrich) or 20 ng/ml of TGF-β (R&D systems) for the times indicated. For Bisindolylmaleimide-I (Calbiochem) or PKC-θ peptide inhibitor (Calbiochem) studies, cells were pre-treated with 1 μM or 30 μM of inhibitor respectively for 1 h prior to stimulation in MCF-7 cells. In case of MDA-MB-231, cells were treated with 4 μM or 30 μM Bisindolylmaleimide-I or PKC-θ peptide inhibitor respectively.
# To separate CSC from non-CSC (NCSC), florescence activated cell sorting (FACS) was performed on single-cell suspensions that were stained with anti-CD44-APC (559942, BD Biosciences) and anti-CD24-PE antibodies (555428, BD Biosciences) along with Hoechst 33258 to monitor cell viability. As used throughout this work, CSC are defined by minority CD44^high/CD24^low, whereas NCSC are defined by rest of the cell populations.
compound,measurement,setting,value
CN(C)CCCn1cc(C2=C(c3c[nH]c4ccccc34)C(=O)NC2=O)c2ccccc21 [bisindolylmaleimide-I],CD44 high CD24 low-CSC-like subpopulation by FACS,,inhibits CD44 high CD24 low-CSC-like subpopulation
same,CD44 high CD24 low-CSC-like subpopulation by FACS,listed as Broad spectrum PKC pathway inhibitor,inhibition of EMT and CSC formation
